The record followed here is US11407737B2, “Inhibitors of RAF kinases” (Kinnate Biopharma Inc., priority 2020, dated 2022).

Where only a bound is given, the exact number is not on record here.

Chain of human RAF1 (P04049 whole entry): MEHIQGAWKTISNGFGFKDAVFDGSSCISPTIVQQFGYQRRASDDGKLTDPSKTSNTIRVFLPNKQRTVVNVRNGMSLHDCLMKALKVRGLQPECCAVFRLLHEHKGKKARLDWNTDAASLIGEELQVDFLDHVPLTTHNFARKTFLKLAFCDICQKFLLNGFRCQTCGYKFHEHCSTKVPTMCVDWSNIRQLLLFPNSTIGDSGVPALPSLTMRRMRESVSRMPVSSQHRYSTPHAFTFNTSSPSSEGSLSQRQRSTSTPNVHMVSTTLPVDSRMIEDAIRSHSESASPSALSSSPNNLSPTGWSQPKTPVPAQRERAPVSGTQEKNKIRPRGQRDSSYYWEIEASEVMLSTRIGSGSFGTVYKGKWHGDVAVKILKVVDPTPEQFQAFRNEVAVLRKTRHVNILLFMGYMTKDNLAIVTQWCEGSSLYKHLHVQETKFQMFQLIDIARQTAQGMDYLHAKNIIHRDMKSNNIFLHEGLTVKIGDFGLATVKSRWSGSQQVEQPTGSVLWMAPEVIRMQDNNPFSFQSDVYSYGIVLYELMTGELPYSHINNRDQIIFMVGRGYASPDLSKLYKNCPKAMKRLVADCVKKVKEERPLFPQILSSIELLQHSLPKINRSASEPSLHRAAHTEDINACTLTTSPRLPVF

This assay concerns the target human RAF1 (Homo sapiens (Human), UniProt P04049). The assay is described as follows: Protein kinase assay (radiometric 33P-ATP, MEK1 (K97R) substrate), RAF-1. Format: biochemical. Conditions: human MEK1 (K97R) substrate 3 micromolar, ATP 10 micromolar; 10-dose, 3-fold serial dilution starting at 10 micromolar; read-out: RAF-1 IC50. The method, boiled down: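 Inhibition was calculated as percent kinase activity versus vehicle, with IC50s fitted from 33P incorporation captured on P81 paper. RAF1 was reacted for 2 hr at room temperature with 3 micromolar MEK1 (K97R) and 10 micromolar final ATP, in 20 mM HEPES pH 7.5, 10 mM MgCl2, 1% DMSO.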
Turning to `Cc1cc(F)c(NC(=O)N2CC[C@@H](CC(F)(F)F)C2)cc1-c1cc(C2CC2)nc(N2CCOCC2)c1` [Example 71, (3S)—N-{5-[2-cyclopropyl-6-(morpholin-4-yl)pyridin-4-yl]-2-fluoro-4-methylphenyl}-3-(2,2,2-trifluoroethyl)pyrrolidine-1-carboxamide], the IC50 was less than 1 nM. The same measure for `CCc1cc(-c2cc(NC(=O)N3CC[C@@H](CC(F)(F)F)C3)c(F)cc2C)cc(N2CCOCC2)n1` [Example 72, (3S)—N-{5-[2-ethyl-6-(morpholin-4-yl)pyridin-4-yl]-2-fluoro-4-methylphenyl}-3-(2,2,2-trifluoroethyl)pyrrolidine-1-carboxamide]: less than 1 nM; for `Cc1cc(F)c(NC(=O)N2CC=C(C(F)(F)F)C2)cc1-c1cc(-c2ccnn2C)nc(N2CCOCC2)c1` [Example 73, N-{2-fluoro-4-methyl-5-[2-(2-methylpyrazol-3-yl)-6-(morpholin-4-yl)pyridin-4-yl]phenyl}-3-(trifluoromethyl)-2,5-dihydropyrrole-1-carboxamide]: less than 1 nM; for `Cc1cc(F)c(NC(=O)N2CC[C@@H](CC(F)(F)F)C2)cc1-c1cc(-c2cnn(C)c2)nc(N2CCOCC2)c1` [Example 74, (3S)—N-{2-fluoro-4-methyl-5-[2-(1-methylpyrazol-4-yl)-6-(morpholin-4-yl)pyridin-4-yl]phenyl}-3-(2,2,2-trifluoroethyl)pyrrolidine-1-carboxamide]: less than 1 nM. The value for `Cc1cc(F)c(NC(=O)N2CC[C@@H](C(F)(F)F)C2)cc1-c1cc(-c2cnn(C)c2)nc(N2CCOCC2)c1` [Example 75, (3R)—N-{2-fluoro-4-methyl-5-[2-(1-methylpyrazol-4-yl)-6-(morpholin-4-yl)pyridin-4-yl]phenyl}-3-(trifluoromethyl)pyrrolidine-1-carboxamide] was less than 1 nM.

In the case of `Cc1cc(F)c(NC(=O)N2CC[C@H](C(F)(F)F)C2)cc1-c1cc(-c2cnn(C)c2)nc(N2CCOCC2)c1` [Example 76, (3S)—N-{2-fluoro-4-methyl-5-[2-(1-methylpyrazol-4-yl)-6-(morpholin-4-yl)pyridin-4-yl]phenyl}-3-(trifluoromethyl)pyrrolidine-1-carboxamide], the IC50 is less than 1 nM. In the case of `Cc1cc(F)c(NC(=O)N2CC=C(CC(F)(F)F)C2)cc1-c1cc(-c2cnn(C)c2)nc(N2CCOCC2)c1` [Example 77, N-{2-fluoro-4-methyl-5-[2-(1-methylpyrazol-4-yl)-6-(morpholin-4-yl)pyridin-4-yl]phenyl}-3-(2,2,2-trifluoroethyl)-2,5-dihydropyrrole-1-carboxamide], the IC50 is less than 1 nM. The same measure for `CCn1cc(-c2cc(-c3cc(NC(=O)N4CC[C@@H](CC(F)(F)F)C4)ccc3C)cc(N3CCOCC3)n2)cn1` [Example 78, (3S)—N-{3-[2-(1-ethylpyrazol-4-yl)-6-(morpholin-4-yl)pyridin-4-yl]-4-methylphenyl}-3-(2,2,2-trifluoroethyl)pyrrolidine-1-carboxamide]: less than 1 nM; for `Cc1cc(F)c(NC(=O)N2CC=C(C(F)(F)C(F)(F)F)C2)cc1-c1cc(-c2cnn(C)c2)nc(N2CCOCC2)c1` [Example 79, N-{2-fluoro-4-methyl-5-[2-(1-methylpyrazol-4-yl)-6-(morpholin-4-yl)pyridin-4-yl]phenyl}-3-(1,1,2,2,2-pentafluoroethyl)-2,5-dihydropyrrole-1-carboxamide]: 1 to 10 nM. Consider `Cc1cc(F)c(NC(=O)N2CC[C@H](C(C)(C)C)C2)cc1-c1cc(-c2cnn(C)c2)nc(N2CCOCC2)c1` [Example 83, (3R)-3-tert-butyl-N-{2-fluoro-4-methyl-5-[2-(1-methylpyrazol-4-yl)-6-(morpholin-4-yl)pyridin-4-yl]phenyl}pyrrolidine-1-carboxamide], for which the IC50 is 1 to 10 nM. The same measure for `Cc1cc(F)c(NC(=O)N2CCC(C(C)(C)F)C2)cc1-c1cc(-c2cnn(C)c2)nc(N2CCOCC2)c1` (centres unmarked) [Example 85, N-{2-fluoro-4-methyl-5-[2-(1-methylpyrazol-4-yl)-6-(morpholin-4-yl)pyridin-4-yl]phenyl}-3-(2-fluoropropan-2-yl)pyrrolidine-1-carboxamide]: 1 to 10 nM.
